ChEMBL document CHEMBL1201862, “PubChem BioAssay data set” (2004)
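Step 1: Grow cells in 96-well plates. Step 2: Expose to compound for 48 hours at 5 concentrations. Step 3: Interpolate endpoints linearly; if unreached, use highest concentration. Abbreviation: GI50, concentration required for 50% inhibition of growth.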 Calls of active or inactive are those of the source. Cut-off read from the data, not from the text of the source: active = GI50 up to about 1.1 µM and inactive = higher.

How the values were obtained:
Assay in all cases: growth of human tumour cells (NCI), 48 h
HCT-116 = system: HCT-116
SW-620 = system: SW-620
NCI-H460 = system: NCI-H460
NCI-H23 = system: NCI-H23
IGROV-1 = system: IGROV-1
OVCAR-5 = system: OVCAR-5
NCI-H226 = system: NCI-H226
CAKI-1 = system: CAKI-1
XF498 = system: XF498
UO-31 = system: UO-31
SNB-19 = system: SNB-19
SK-MEL-28 = system: SK-MEL-28
U-251 = system: U-251
M19-MEL = system: M19-MEL
HCT-15 = system: HCT-15
SNB-78 = system: SNB-78
CCRF-CEM = system: CCRF-CEM
HOP-92 = system: HOP-92
LOX IMVI = system: LOX IMVI
HT-29 = system: HT-29
LXFL 529 = system: LXFL 529
EKVX = system: EKVX
OVCAR-8 = system: OVCAR-8
DMS-273 = system: DMS-273
SF-539 = system: SF-539
OVCAR-3 = system: OVCAR-3
NCI-H522 = system: NCI-H522
UACC-257 = system: UACC-257
A498 = system: A498
ACHN = system: ACHN
SK-MEL-2 = system: SK-MEL-2
COLO 205 = system: COLO 205
786-0 = system: 786-0
DMS-114 = system: DMS-114
SN12C = system: SN12C
KM12 = system: KM12
RXF 393 = system: RXF 393
A549 = system: A549
KM-20L2 = system: KM-20L2
MOLT-4 = system: MOLT-4
SF-295 = system: SF-295
TK-10 = system: TK-10
UACC-62 = system: UACC-62
Malme-3M = system: Malme-3M
SF-268 = system: SF-268
SK-OV-3 = system: SK-OV-3
HCC 2998 = system: HCC 2998
SR = system: SR
SNB-75 = system: SNB-75
OVCAR-4 = system: OVCAR-4
K562 = system: K562
HOP-18 = system: HOP-18
HL-60 = system: HL-60
M14 = system: M14
HOP-62 = system: HOP-62
SK-MEL-5 = system: SK-MEL-5
RPMI-8226 = system: RPMI-8226
DLD-1 = system: DLD-1

Cc1c(C(=O)/C=C/c2ccc(N(C)C)cc2)c(=O)n(-c2ccccc2)n1C
GI50 (HCT-116): > 100 µM (inactive)
GI50 (SW-620): > 100 µM (inactive)
GI50 (NCI-H460): > 100 µM (inactive)
GI50 (NCI-H23): > 100 µM (inactive)
GI50 (IGROV-1): > 100 µM (inactive)
GI50 (OVCAR-5): > 100 µM (inactive)
GI50 (NCI-H226): > 100 µM (inactive)
GI50 (CAKI-1): > 100 µM (inactive)
GI50 (XF498): > 100 µM (inactive)
GI50 (UO-31): > 100 µM (inactive)
GI50 (SNB-19): > 100 µM (inactive)
GI50 (SK-MEL-28): > 100 µM (inactive)
GI50 (U-251): > 100 µM (inactive)
GI50 (M19-MEL): > 100 µM (inactive)
GI50 (HCT-15): > 100 µM
GI50 (SNB-78): > 100 µM (inactive)
GI50 (CCRF-CEM): > 100 µM (inactive)
GI50 (HOP-92): > 100 µM (inactive)
GI50 (LOX IMVI): > 100 µM (inactive)
GI50 (HT-29): > 100 µM (inactive)
GI50 (LXFL 529): > 100 µM (inactive)
GI50 (EKVX): > 100 µM (inactive)
GI50 (OVCAR-8): > 100 µM (inactive)
GI50 (DMS-273): > 100 µM (inactive)
GI50 (SF-539): > 100 µM (inactive)
GI50 (OVCAR-3): > 100 µM (inactive)
GI50 (NCI-H522): > 100 µM (inactive)
GI50 (UACC-257): > 100 µM (inactive)
GI50 (A498): > 100 µM (inactive)
GI50 (ACHN): > 100 µM (inactive)
GI50 (SK-MEL-2): > 100 µM (inactive)
GI50 (COLO 205): > 100 µM (inactive)
GI50 (786-0): > 100 µM (inactive)
GI50 (DMS-114): > 100 µM (inactive)
GI50 (SN12C): > 100 µM (inactive)
GI50 (KM12): > 100 µM (inactive)
GI50 (RXF 393): > 100 µM (inactive)
GI50 (A549): > 100 µM (inactive)
GI50 (KM-20L2): > 100 µM (inactive)
GI50 (MOLT-4): > 100 µM (inactive)
GI50 (SF-295): > 100 µM (inactive)
GI50 (TK-10): > 100 µM (inactive)
GI50 (UACC-62): > 100 µM (inactive)
GI50 (Malme-3M): > 100 µM (inactive)
GI50 (SF-268): > 100 µM (inactive)
GI50 (SK-OV-3): > 100 µM (inactive)
GI50 (HCC 2998): > 100 µM (inactive)

Nc1cc(-c2ccccc2)nn1-c1nsc2ccccc12
GI50 (HCT-116): 73.3 µM (inactive)
GI50 (SW-620): > 100 µM (inactive)
GI50 (NCI-H460): 60.8 µM (inactive)
GI50 (NCI-H23): > 100 µM (inactive)
GI50 (IGROV-1): 83.9 µM (inactive)
GI50 (OVCAR-5): > 100 µM (inactive)
GI50 (SR): 53.2 µM (inactive)
GI50 (UO-31): > 100 µM (inactive)
GI50 (SNB-19): > 100 µM (inactive)
GI50 (SK-MEL-28): 98.4 µM (inactive)
GI50 (U-251): 54.2 µM (inactive)
GI50 (M19-MEL): > 100 µM (inactive)
GI50 (HCT-15): 95.3 µM
GI50 (SNB-78): 68.1 µM (inactive)
GI50 (CCRF-CEM): 21.6 µM (inactive)
GI50 (SNB-75): 19.7 µM (inactive)
GI50 (HOP-92): 63.4 µM (inactive)
GI50 (LOX IMVI): 97.5 µM (inactive)
GI50 (HT-29): 91.2 µM (inactive)
GI50 (LXFL 529): > 100 µM (inactive)
GI50 (EKVX): 47.8 µM (inactive)
GI50 (OVCAR-8): 92.9 µM (inactive)
GI50 (DMS-273): 80.7 µM (inactive)
GI50 (SF-539): > 100 µM (inactive)
GI50 (OVCAR-3): 94.2 µM (inactive)
GI50 (UACC-257): > 100 µM (inactive)
GI50 (OVCAR-4): > 100 µM (inactive)
GI50 (ACHN): > 100 µM (inactive)
GI50 (SK-MEL-2): > 100 µM (inactive)
GI50 (COLO 205): > 100 µM (inactive)
GI50 (K562): 40.4 µM (inactive)
GI50 (DMS-114): > 100 µM (inactive)
GI50 (SN12C): 99.8 µM (inactive)
GI50 (KM12): > 100 µM (inactive)
GI50 (RXF 393): 14.4 µM (inactive)
GI50 (HOP-18): 0.573 µM (active)
GI50 (HL-60): 61.8 µM (inactive)
GI50 (A549): > 100 µM (inactive)
GI50 (KM-20L2): > 100 µM (inactive)
GI50 (MOLT-4): 55.1 µM (inactive)
GI50 (TK-10): > 100 µM (inactive)
GI50 (UACC-62): > 100 µM (inactive)
GI50 (M14): > 100 µM (inactive)
GI50 (HOP-62): 36.3 µM (inactive)
GI50 (SK-MEL-5): > 100 µM (inactive)
GI50 (SF-268): 58.9 µM (inactive)
GI50 (RPMI-8226): 76.9 µM (inactive)
GI50 (HCC 2998): > 100 µM (inactive)

CNC(=O)CN1CC(=O)N(C)C(=O)C1
GI50 (SW-620): > 100 µM (inactive)
GI50 (NCI-H23): > 100 µM (inactive)
GI50 (IGROV-1): > 100 µM (inactive)
GI50 (OVCAR-5): > 100 µM (inactive)
GI50 (NCI-H226): > 100 µM (inactive)
GI50 (CAKI-1): > 100 µM (inactive)
GI50 (SR): > 100 µM (inactive)
GI50 (XF498): > 100 µM (inactive)
GI50 (UO-31): > 100 µM (inactive)
GI50 (SNB-19): > 100 µM (inactive)
GI50 (SK-MEL-28): > 100 µM (inactive)
GI50 (U-251): > 100 µM (inactive)
GI50 (M19-MEL): > 100 µM (inactive)
GI50 (HCT-15): > 100 µM
GI50 (SNB-78): > 100 µM (inactive)
GI50 (CCRF-CEM): > 100 µM (inactive)
GI50 (SNB-75): > 100 µM (inactive)
GI50 (HOP-92): > 100 µM (inactive)
GI50 (LOX IMVI): > 100 µM (inactive)
GI50 (LXFL 529): > 100 µM (inactive)
GI50 (DMS-273): > 100 µM (inactive)
GI50 (OVCAR-3): > 100 µM (inactive)
GI50 (NCI-H522): > 100 µM (inactive)
GI50 (OVCAR-4): > 100 µM (inactive)
GI50 (SK-MEL-2): > 100 µM (inactive)
GI50 (COLO 205): > 100 µM (inactive)
GI50 (K562): > 100 µM (inactive)
GI50 (KM12): > 100 µM (inactive)
GI50 (RXF 393): > 100 µM (inactive)
GI50 (HL-60): > 100 µM (inactive)
GI50 (KM-20L2): > 100 µM (inactive)
GI50 (DLD-1): > 100 µM (inactive)
GI50 (MOLT-4): > 100 µM (inactive)
GI50 (TK-10): > 100 µM (inactive)
GI50 (UACC-62): > 100 µM (inactive)
GI50 (M14): > 100 µM (inactive)
GI50 (HOP-62): > 100 µM (inactive)
GI50 (SK-MEL-5): > 100 µM (inactive)
GI50 (Malme-3M): > 100 µM (inactive)
GI50 (RPMI-8226): > 100 µM (inactive)
GI50 (SK-OV-3): > 100 µM (inactive)
GI50 (HCC 2998): > 100 µM (inactive)
